Measured values taken from PMC7222207, “Characterization of a CholesteroNitrone (ISQ-201), a Novel Drug Candidate for the Treatment of Ischemic Stroke” (Antioxidants, 2020).
Where two headings read alike, the source gives them in different places.

What was measured:
[1] = Pharmacokinetics study, plasma concentration after intravenous bolus (LC-MS/MS); type: in vivo, male Wistar rats; conditions: rat; for clearance / Vd / k el / half-life / Cmax / AUC(0-t) / C0: male, Wistar; for clearance / Vd / k el / half-life / Cmax / AUC(0-t) / C0 / Clast: plasma; for clearance / Vd / k el / Cmax / AUC(0-t) / C0 / Clast: mean ± SE n=6; for clearance: read-out: Cl (terminal clearance) (converted); for Vd: read-out: Vd (volume of distribution); for k el: read-out: kel (terminal elimination constant) (converted); for half-life: iv; for AUC(0-t): read-out: AUC0–8h; for C0: read-out: C0 (initial concentration)
Protocol: For the study of the variation of the concentration of ISQ-201 in plasma, male Wistar rats (10–12 weeks, Charles River) were randomly divided into three groups (n = 6 per group) and treated intravenously, as a bolus with different concentrations of ISQ-201 (0.07, 0.25, and 1.0 mg/kg, respectively). Plasma samples were taken 0.25, 0.5, 1, 2, 4, and 8 h after the administration and the ISQ-201 concentration was determined by LC–MS/MS analysis. A noncompartmental analysis was performed for the determination of the toxicokinetic parameters, using the Phoenix 64 WinNonlin program (version 8.0). This study was carried out by Swiss BioQuant AG (Reinach, Switzerland).
Study of the variation of ISQ-201 concentration after a single bolus intravenous administration was carried out with different doses of ISQ-201 (0.07, 0.25, and 1.00 mg/kg). Plasma samples were collected 0.25, 0.5, 1, 2, 4, and 8 h after administration, and the ISQ-201 concentration was determined through LC/MS–MS (Figure 7). Pharmacokinetic parameters were calculated through a non-compartmental analysis (Table 2).

[2] = system: transient forebrain ischemia, cortex and hippocampal CA1; test: Global cerebral ischemia (4VO), dose-response curve of neuroprotection; type: in vivo, male Wistar rats; conditions: for EC50 of neuroprotection from dose-response curve: 5 days of reperfusion
Protocol: Transient forebrain ischemia was induced in adult male Wistar rats (10–12 weeks, Charles River) by the standard four-vessel occlusion model (4VO) described previously. Briefly, both vertebral arteries were irreversibly occluded by electrocoagulation under anesthesia, with a mixture of atropine, ketamine, and diazepam (0.25, 62.5, and 5 mg/kg, respectively) delivered through intraperitoneal injection. After 24 h, ischemia was induced by carotid occlusion with atraumatic clips, for 15 min, and then the clips were removed from the carotid arteries to allow reperfusion. Body temperature was maintained at 37 °C during the surgical procedure. The animals were studied after 5 days of reperfusion (R5d) after which they were sacrificed. Sham control animals were prepared in the same way, without carotid occlusion. We performed a power analysis (http://www.biomath.info/power/ttest.htm) to determine the sample size. Significance level and statistical power were set at 0.05 and 0.8 (80%), respectively, which afforded a sample size of […] subjects per group. The treatments were administered with concealed allocation, and in randomized order, according to a computer-generated randomization program. […]
Figure 2 Dose-response curve of ISQ-201. Ischemic animals were treated with a vehicle or ISQ-201 (range 0.01–0.1 mg/kg) by an intravenous injection, at the onset of reperfusion after global cerebral ischemia, and ISQ-201 effect was evaluated by assessing the neuronal death at 5 days of reperfusion (R5d). […] Fluoro-Jade-positive dead neurons were visualized by fluorescence microscopy (in green) in the hippocampal CA1 (CA1) and cortical (C) regions (images), and counted, as described in Materials and Methods (bar graph). (b) Brain sections as in (a) were used for apoptosis detection by TUNEL assay after fixation, and were visualized by fluorescence microscopy (in green) in the CA1 and C regions (images). TUNEL-positive cells were counted in the CA1 and C regions, as described in the Materials and Methods (bar graph). […]

cerebral ischemia = system: cerebral ischemia; set-up: method as in PMID 26241908; conditions: 0.05 and 0.1 mg/kg intraperitoneal at onset of reperfusion; cited from earlier work

## CC(C)[C@H]1CC[C@H]2[C@@H]3CCC4=C/C(=[N+](\C)[O-])CC[C@]4(C)[C@H]3CC[C@]12C [ISQ-201]
[1]; iv bolus 0.07 mg/kg
  clearance: 1.75 mL/min
  Vd: 0.364 ± 0.11 L
  k el: 8.81e-05 s⁻¹
  Cmax: 50.6 ± 7.4 ng/mL
  AUC(0-t): 81.1 ± 9.5 ng·h/mL
  C0: 74.6 ± 12.2 ng/mL
  Clast: 1.53 ± 0.09 ng/mL
[1]; iv bolus 0.25 mg/kg
  clearance: 0.923 mL/min
  Vd: 0.166 ± 0.027 L
  k el: 9.53e-05 s⁻¹
  Cmax: 330 ± 51.2 ng/mL
  AUC(0-t): 477 ± 42 ng·h/mL
  C0: 490 ± 80.2 ng/mL
  Clast: 7.49 ± 0.75 ng/mL
[1]; iv bolus 1.00 mg/kg
  clearance: 0.895 mL/min
  Vd: 0.3 ± 0.103 L
  k el: 7.94e-05 s⁻¹
  Cmax: 1210 ± 300 ng/mL
  AUC(0-t): 2030 ± 429 ng·h/mL
  C0: 1690 ± 424 ng/mL
  Clast: 42.03 ± 4.42 ng/mL
[1]; 0.07 mg/kg, iv bolus 0.07 mg/kg, mean ± SE n=6, read-out: t1/2 (half-life) (converted)
  half-life: 1.66 ± 0.1 h
[1]; 0.25 mg/kg, iv bolus 0.25 mg/kg, mean ± SE n=6, read-out: t1/2 (half-life) (converted)
  half-life: 1.51 ± 0.12 h
[1]; 1 mg/kg, iv bolus 1.00 mg/kg, mean ± SE n=6, read-out: t1/2 (half-life) (converted)
  half-life: 2.2 ± 0.53 h
[1]; iv bolus, 0.07–1.00 mg/kg, read-out: half-life
  half-life: 1.5 to 2 h
[1]; iv bolus, whole studied range 0.07–1.00 mg/kg
  Cmax and AUC0-8h relation to dose: linearly related to the dose
[2]; cortex, iv 0.01–0.1 mg/kg at reperfusion onset
  EC50 of neuroprotection from dose-response curve: 0.015 mg/kg
[2]; hippocampal CA1, iv 0.01–0.1 mg/kg at reperfusion onset
  EC50 of neuroprotection from dose-response curve: 0.025 mg/kg
[2]; iv, doses 0.01–0.1 mg/kg, after 5 days of reperfusion
  most effective dose in decreasing neuronal death and apoptosis: 0.05 mg/kg
Cerebral ischemia
  neuronal death, apoptosis and neurodeficit score: significant decreases
